Experiments:
CDI = experiment: Individual patient data for extended fidaxomicin treatment regimen; format: in vivo, human
Text: Individual Patient Data for Extended Fidaxomicin Treatment Regimen

[1] = tested on: Clostridium difficile (C. diff) toxins A and B; experiment: Detection of C. difficile toxins A and B in human faecal samples by ELISA (EXTEND samples); format: in vivo
Method: The detection of Clostridium difficile (C. diff) toxins A and B in human faecal samples was performed by ELISA. The samples to be analysed originated from clinical study 2819-MA-1002 (EXTEND).
The samples were sent to LGC (Analytical lab in Fordham, Cambridgeshire, UK) packed in dry ice and upon receipt stored in a freezer (nominally −80° C.). For each patient a stool sample was collected at Day 0 (screening) and also in case of disease recurrence or an unscheduled visit. For subjects participating in the Microbiome sub-study stool samples were collected at: Day 0 (screening), Day 5, Day 12, Day 27, Day 40, Day 55 and in the case of disease recurrence or an unscheduled visit. A total of 596 faecal samples were collected during the study.
C. difficile toxins A and B in human faecal samples were detected using TECHLAB C. difficile Tox A/B II ELISA kits (Product Number T5015).
The assay readout is the spectrophotometric dual wavelength optical density (OD) read at 450 nm and referenced at 620 nm and expressed in Absorbance Units (AU). All samples were measured in duplicate. The presence (+) or absence (−) of toxin was reported together with the mean OD.
The acceptability of each batch of test samples was dependent on the data from the QC samples fulfilling the acceptance criteria outlined below in Table 5, in that all positive QCs remain above the cut off value of >0.080 OD and negative QCs remain ≤0.080 OD. All batches contained 2 separate sets of QC samples which were measured in duplicate. The precision was calculated between the OD of replicates of each set using the coefficient of variation (CV) which should be <20%.

[2] = tested on: Clostridium difficile infection; settings: Louie 2011; 200 mg Fidaxomicin twice daily or vancomycin 125 mg four times daily orally for 10 days; cited from earlier work
[3] = Sub-study visit day 5, n = 20 per arm
[4] = Sub-study visit day 12, n = 20 per arm
[5] = Sub-study visit day 27, n = 20 Fidaxomicin, 17 Vancomycin

CCc1c(Cl)c(O)c(Cl)c(O)c1C(=O)O[C@H]1[C@H](O)[C@H](OC)[C@H](OC/C2=C\C=C\C[C@H](O)/C(C)=C/[C@H](CC)[C@@H](O[C@@H]3OC(C)(C)[C@@H](OC(=O)C(C)C)[C@H](O)[C@@H]3O)/C(C)=C/C(C)=C/C[C@@H]([C@@H](C)O)OC2=O)O[C@@H]1C [fidaxomicin, 3-[[[6-deoxy-4-O-(3,5-dichloro-2-ethyl-4,6-dihydroxybenzoyl)-2-O-methyl-β-D-mannopyranosyl]oxy]methyl]-12(R)-[[6-deoxy-5-C-methyl-4-O-(2-methyl-1-oxopropyl)-β-D-lyxo-hexopyranosyl]oxy]-11 (S)-ethyl-8(S)-hydroxy-18(S)-(1(R)-hydroxyethyl)-9,13,15-trimethyloxacyclooctadeca-3,5,9,13,15-pentaene-2-one]
Number of Unformed bowel movements per day (CDI; Patient 1 (ID: 3000510001), Day 1): 4 | Number of Unformed bowel movements per day (CDI; Patient 1 (ID: 3000510001), Day 2): 2 | Number of Unformed bowel movements per day (CDI; Patient 1 (ID: 3000510001), Day 3): 1 | Number of Unformed bowel movements per day (CDI; Patient 1 (ID: 3000510001), Day 4): 0 | Number of Unformed bowel movements per day (CDI; Patient 1 (ID: 3000510001), Day 5): 0 | Number of Unformed bowel movements per day (CDI; Patient 1 (ID: 3000510001), Day 6): 2 | Number of Unformed bowel movements per day (CDI; Patient 1 (ID: 3000510001), Day 7): 0 | Number of Unformed bowel movements per day (CDI; Patient 1 (ID: 3000510001), Day 8): 0 | Number of Unformed bowel movements per day (CDI; Patient 1 (ID: 3000510001), Day 9): 0 | Number of Unformed bowel movements per day (CDI; Patient 1 (ID: 3000510001), Day 10): 0 | Number of Unformed bowel movements per day (CDI; Patient 2 (ID: 3000710001), Day 1): 7 | Number of Unformed bowel movements per day (CDI; Patient 2 (ID: 3000710001), Day 2): 7 | Number of Unformed bowel movements per day (CDI; Patient 2 (ID: 3000710001), Day 3): 2 | Number of Unformed bowel movements per day (CDI; Patient 2 (ID: 3000710001), Day 4): 1 | Number of Unformed bowel movements per day (CDI; Patient 2 (ID: 3000710001), Day 5): 1 | Number of Unformed bowel movements per day (CDI; Patient 2 (ID: 3000710001), Day 6): 2 | Number of Unformed bowel movements per day (CDI; Patient 2 (ID: 3000710001), Day 7): 1 | Number of Unformed bowel movements per day (CDI; Patient 2 (ID: 3000710001), Day 8): 1 | Number of Unformed bowel movements per day (CDI; Patient 2 (ID: 3000710001), Day 9): 1 | Number of Unformed bowel movements per day (CDI; Patient 2 (ID: 3000710001), Day 10): 0 | Number of Unformed bowel movements per day (CDI; Patient 3 (ID: 3400310001), Day 1): 8 | Number of Unformed bowel movements per day (CDI; Patient 3 (ID: 3400310001), Day 2): 0 | Number of Unformed bowel movements per day (CDI; Patient 3 (ID: 3400310001), Day 3): 0 | Number of Unformed bowel movements per day (CDI; Patient 3 (ID: 3400310001), Day 4): 0 | Number of Unformed bowel movements per day (CDI; Patient 3 (ID: 3400310001), Day 5): 0 | Number of Unformed bowel movements per day (CDI; Patient 3 (ID: 3400310001), Day 6): 0 | Number of Unformed bowel movements per day (CDI; Patient 3 (ID: 3400310001), Day 7): 0 | Number of Unformed bowel movements per day (CDI; Patient 3 (ID: 3400310001), Day 8): 0 | Number of Unformed bowel movements per day (CDI; Patient 3 (ID: 3400310001), Day 9): 0 | Number of Unformed bowel movements per day (CDI; Patient 3 (ID: 3400310001), Day 10): 0 | Number of Unformed bowel movements per day (CDI; Patient 4 (ID: 3580210001), Day 1): 9 | Number of Unformed bowel movements per day (CDI; Patient 4 (ID: 3580210001), Day 2): 9 | Number of Unformed bowel movements per day (CDI; Patient 4 (ID: 3580210001), Day 3): 5 | Number of Unformed bowel movements per day (CDI; Patient 4 (ID: 3580210001), Day 4): 3 | Number of Unformed bowel movements per day (CDI; Patient 4 (ID: 3580210001), Day 5): 2 | Number of Unformed bowel movements per day (CDI; Patient 4 (ID: 3580210001), Day 6): 3 | Number of Unformed bowel movements per day (CDI; Patient 4 (ID: 3580210001), Day 7): 3 | Number of Unformed bowel movements per day (CDI; Patient 4 (ID: 3580210001), Day 8): 1 | Number of Unformed bowel movements per day (CDI; Patient 4 (ID: 3580210001), Day 9): 1 | Number of Unformed bowel movements per day (CDI; Patient 4 (ID: 3580210001), Day 10): 2 | CDI toxin in faecal stool samples, Negative (%) [1, 3]: (75%) | CDI toxin in faecal stool samples, Negative (number of subjects) [1, 3]: 15 | CDI toxin in faecal stool samples, Positive (%) [1, 3]: (25%) | CDI toxin in faecal stool samples, Positive (number of subjects) [1, 3]: 5 | CDI toxin in faecal stool samples, Negative (%) [1, 4]: (95.0%) | CDI toxin in faecal stool samples, Negative (number of subjects) [1, 4]: 19 | CDI toxin in faecal stool samples, Positive (%) [1, 4]: (5.0%) | CDI toxin in faecal stool samples, Positive (number of subjects) [1, 4]: 1 | CDI toxin in faecal stool samples, Negative (%) [1, 5]: (95.0%) | CDI toxin in faecal stool samples, Negative (number of subjects) [1, 5]: 19 | CDI toxin in faecal stool samples, Positive (%) [1, 5]: (5.0%) | CDI toxin in faecal stool samples, Positive (number of subjects) [1, 5]: 1 | Recurrence 30 days after end of treatment (%) [2]: 15.4% | Recurrence 30 days after end of treatment (patients/N) [2]: 39/253 | Sustained clinical cure 30 days after end of treatment (%) [2]: 74.6% | Sustained clinical cure 30 days after end of treatment (patients/N) [2]: 214/287
